From PMC10791743, “Selective CK1α degraders exert antiproliferative activity against a broad range of human cancer cell lines” (Nature Communications, 2024)
Where “and” joins values, the source holds several entries; their conditions need not be identical. Equal values may be shown once.

Key:
[1] = test system: MOLM-13 cells; assay: MOLM-13 cell viability assay (CTG, 72 h); type: cell-based, human; design: key to Cell viability in MOLM-13 cells / cell viability, dose-response replicate values: % viability = 100 − % activity, normalized to controls; conditions: for Cell viability in MOLM-13 cells: SJ3149 series
Procedure: The primary screen was performed in 384-well format using the CellTiter Glo (CTG) luminescent cell viability assay (Promega) as previously described. […] After overnight incubation at 37 °C in a humidified 5% CO2 incubator, cells were treated with compounds in dose–response format using a Pintool on a Biomek FX^P Laboratory Automation Workstation (Beckman Coulter). […] Luminescence signal was measured using an EnVision plate reader (PerkinElmer). […]
number per well and incubated overnight at 37 °C in a humidified 5 % CO2 incubator. Compounds were transferred to the assay plate from a dose-response plate using a Labcyte Echo 650 Acoustic Liquid Handler (Beckman Coulter , USA). […]
using Promega’s CellTiter-Glo reagent according to the manufacturer’s recommendation.
Luminescence was measured on the Envision plate reader (PerkinElmer, USA). Raw luminescence relative light unit (RLU) values for each compound at each concentration were normalized to obtain % activity using the following equation (1): 100 × [(mean(negctrl) – compound)/(mean (negctrl) – mean (posctrl))]. The % activity was converted to % viability using the following equation (2):
(100 – % activity), and then pooled from replicate experiments prior to fitting. Here, negctrl and posctrl refer to the negative (DMSO) and positive controls (staurosporine) on each plate. Dose-response curves were fit to the Hill equation using the GraphPad Prism (version 10). […]

[2] = test system: MOLM-13 cells; assay: Annexin-V staining for apoptosis, wild type MOLM-13; type: cell-based, human; conditions: for total apoptosis, flow cytometry: MOLM-13; for Late apoptosis, flow cytometry / Early apoptosis, flow cytometry: WT
Procedure: (§1) Wild type and CRBN^−/− MOLM-13 cells were grown in 12-well plates (TPP, Techno Plastic Products AG) with 500,000 cells per well in 2 ml total media volume. Cells were treated with 1 μl/ml DMSO or 1 μM compound in triplicate, and incubated for 24 or 72 h at 37 °C. To prepare samples, this buffer was used: 10 mM HEPES, 0.14 M NaCl, 2.5 mM CaCl2 pH 7.4, 2% v/v FBS in UltraPure water (Invitrogen). After incubation, samples were collected in 5-ml tubes for flow cytometry (Falcon). Single-stain controls consisted of ~150 μl of multiple samples combined. Wells were washed with 1 ml of buffer that was added to the corresponding sample tube. Cells were centrifuged at 500×g for 5 min at 4 °C to form a pellet. Supernatant was decanted and cells were washed again with 3 ml of buffer, then centrifuged. After decanting the supernatant, 3 μl of APC-conjugated anti-Annexin-V antibody (BioLegend) was added to each tube in the residual buffer left behind. Samples were mixed by vortex and incubated at room temperature in the dark for 20 min. Samples were then washed and centrifuged a final time, decanting the supernatant and blotting the tubes to remove residual buffer. 50 μl of buffer with DAPI was added to all appropriate samples and mixed, then analyzed by flow cytometry.
(§2) Supplementary Fig. 13: Gating for Annexin V flow cytometry analysis. Total cells were gated to remove cell debris, followed by single cell gating on the FSC-A/FSC-H diagonal. Within the single […]
(§3) Live cells are negative for both fluorescent markers, DAPI positive/APC negative cells are necrotic, APC positive/DAPI negative cells are still alive but in the early stages of apoptosis, and double positive cells are dead via apoptosis. Percentages of early and late apoptosis were plotted in supplementary figures 4 and 5.
(§4) (1 picture or pasted object on this page, not shown here)

[3] = test system: CRBN−/− MOLM-13 cells; assay: Annexin-V staining for apoptosis, CRBN−/− MOLM-13; type: cell-based, human; conditions: for Late apoptosis, flow cytometry / Early apoptosis, flow cytometry: CRBN-/-; for total apoptosis, flow cytometry: MOLM-13 CRBN-/-
Procedure: as §1, §2, §3, §4

[4] = target: CK1α (Homo sapiens, UniProt P48729+Q96SW2); assay: CK1α HiBiT live-cell kinetic degradation assay (HEK293 cells); type: cell-based; design: engineered by CRISPR/Cas9 to express endogenous CK1α (HEK293 cells) with a HiBiT tag
CK1α, sequence (P48729 whole entry): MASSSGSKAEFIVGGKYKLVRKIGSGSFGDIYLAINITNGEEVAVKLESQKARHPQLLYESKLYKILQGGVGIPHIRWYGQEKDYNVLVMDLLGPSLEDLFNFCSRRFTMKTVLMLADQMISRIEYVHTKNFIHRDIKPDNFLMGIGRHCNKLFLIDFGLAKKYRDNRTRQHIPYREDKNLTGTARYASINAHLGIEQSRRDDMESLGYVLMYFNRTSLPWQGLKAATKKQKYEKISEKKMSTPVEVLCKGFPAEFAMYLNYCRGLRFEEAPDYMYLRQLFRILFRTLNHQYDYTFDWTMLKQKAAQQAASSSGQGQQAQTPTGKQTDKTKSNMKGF
CK1α, sequence (Q96SW2 whole entry): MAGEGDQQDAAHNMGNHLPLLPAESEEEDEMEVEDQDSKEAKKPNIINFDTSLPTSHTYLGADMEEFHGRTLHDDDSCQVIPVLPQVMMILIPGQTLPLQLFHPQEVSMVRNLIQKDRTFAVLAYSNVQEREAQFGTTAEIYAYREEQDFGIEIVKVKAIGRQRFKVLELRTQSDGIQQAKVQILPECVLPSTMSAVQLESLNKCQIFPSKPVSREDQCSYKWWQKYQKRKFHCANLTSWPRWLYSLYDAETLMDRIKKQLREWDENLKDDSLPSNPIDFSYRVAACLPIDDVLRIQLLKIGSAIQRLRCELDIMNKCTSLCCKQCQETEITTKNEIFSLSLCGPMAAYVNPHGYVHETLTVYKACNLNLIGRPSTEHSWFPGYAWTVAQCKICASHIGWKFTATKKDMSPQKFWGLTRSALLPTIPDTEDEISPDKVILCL
CK1α, sequence (Q16531 whole entry partner): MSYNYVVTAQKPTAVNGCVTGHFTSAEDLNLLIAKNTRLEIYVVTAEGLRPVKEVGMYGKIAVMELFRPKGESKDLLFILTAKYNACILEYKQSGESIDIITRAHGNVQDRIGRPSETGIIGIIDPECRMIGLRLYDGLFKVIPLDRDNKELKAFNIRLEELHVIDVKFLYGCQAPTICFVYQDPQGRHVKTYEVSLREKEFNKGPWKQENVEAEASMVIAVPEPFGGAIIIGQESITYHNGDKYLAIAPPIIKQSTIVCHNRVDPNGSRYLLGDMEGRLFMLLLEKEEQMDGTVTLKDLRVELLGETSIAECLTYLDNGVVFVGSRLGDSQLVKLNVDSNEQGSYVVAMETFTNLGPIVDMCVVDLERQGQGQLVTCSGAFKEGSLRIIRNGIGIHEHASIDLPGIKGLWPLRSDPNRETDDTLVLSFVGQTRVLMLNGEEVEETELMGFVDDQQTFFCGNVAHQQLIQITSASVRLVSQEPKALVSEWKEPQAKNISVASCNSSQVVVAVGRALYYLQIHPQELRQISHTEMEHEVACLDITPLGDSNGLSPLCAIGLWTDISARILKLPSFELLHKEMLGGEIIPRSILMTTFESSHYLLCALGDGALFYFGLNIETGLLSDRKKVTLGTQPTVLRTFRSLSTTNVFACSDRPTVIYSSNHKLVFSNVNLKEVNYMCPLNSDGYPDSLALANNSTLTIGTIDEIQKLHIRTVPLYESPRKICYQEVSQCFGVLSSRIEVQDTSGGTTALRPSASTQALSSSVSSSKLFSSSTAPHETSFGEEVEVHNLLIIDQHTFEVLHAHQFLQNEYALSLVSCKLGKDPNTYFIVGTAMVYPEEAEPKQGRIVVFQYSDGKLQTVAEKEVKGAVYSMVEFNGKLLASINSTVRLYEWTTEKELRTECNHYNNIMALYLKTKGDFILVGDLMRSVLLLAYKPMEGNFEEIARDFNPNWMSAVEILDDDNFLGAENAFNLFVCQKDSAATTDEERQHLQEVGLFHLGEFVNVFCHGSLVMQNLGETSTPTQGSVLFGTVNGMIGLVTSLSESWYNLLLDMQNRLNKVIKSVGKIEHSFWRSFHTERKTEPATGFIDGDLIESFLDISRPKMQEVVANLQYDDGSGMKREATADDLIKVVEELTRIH
Description: To measure cellular protein levels, we used cell lines that have been engineered by CRISPR/Cas9 to express endogenous CK1α (HEK293 cells) or IKZF1 (Jurkat cells) with a HiBiT tag, which when coupled with LgBiT expression forms NanoBiT, a bioluminescent protein that can be used for kinetic studies of protein degradation. […] Cell viability was also monitored with CellTiter Glo 2.0 (Promega) at the completion of the experiment to ensure that loss of protein was not a consequence of a loss of cell viability.
IKZF1-HiBiT Jurkat LgBiT stable cells were seeded at 60,000 cells/well in 50% growth media/50% CO2 independent medium supplemented with 10% FBS and 1× Endurazine substrate. […] A dose–response curve was generated by performing 3-fold dilutions of each compound including a DMSO-only control in growth media. For live cell kinetic degradation assays, diluted compounds were added to CK1α and β-catenin plates and placed in a GloMax Discover (Promega, Cat. #GM3000) preheated to 37 °C or added to IKZF1 plates and placed in a CLARIOstar Plus (BMG LABTECH) preheated to 37 °C.
Relative protein level was determined based on normalization to the DMSO control and reported at Fractional RLUs. Degradation rate and degradation maximums were calculated from Fractional RLUs as previously described[38] using GraphPad Prism software. β-catenin stabilization time of onset for each concentration curve was calculated in GraphPad Prism by fitting an unconstrained plateau followed by one phase association model using the equation below (Y = IF(X < X0, Y0,Y0+(Plateau−Y0)*(1−exp(−K*(X−X0))))). The parameter, X0 was used as time of onset for each compound concentration.

O=C1CCC(N2Cc3cc(Nc4noc5ccccc45)ccc3C2=O)C(=O)N1 (centres unmarked) [SJ3149]
Effect on MOLM-13 cell viability (cytotoxicity) ([1]; CTG 72 h): more robust effect on the viability of MOLM-13 cells
IC50 ([1]; Homo sapiens, MOLM-13, CTG 72 h, read-out: IC50, MOLM-13 cell growth/viability): 13 nM
Cell viability in MOLM-13 cells ([1]; Conc 0.000508): 101.693 and 103.275 and 101.343
Cell viability in MOLM-13 cells ([1]; Conc 0.00152416): 101.046 and 101.638 and 102.894
Cell viability in MOLM-13 cells ([1]; Conc 0.00457247): 93.8551 and 92.4498 and 91.2385
Cell viability in MOLM-13 cells ([1]; Conc 0.0137174): 62.1406 and 65.1592 and 63.0989
Cell viability in MOLM-13 cells ([1]; Conc 0.0411523): 25.3582 and 28.4617 and 24.9569
Cell viability in MOLM-13 cells ([1]; Conc 0.123457): 6.148 and 8.382 and 8.141
Cell viability in MOLM-13 cells ([1]; Conc 0.37037): 3.25 and 4.028 and 3.791
Cell viability in MOLM-13 cells ([1]; Conc 1.11111): 2.026 and 2.1314 and 2.9156
Cell viability in MOLM-13 cells ([1]; Conc 3.33333): 1.946 and 1.78 and 2.069
Cell viability in MOLM-13 cells ([1]; Conc 10): 0.7978 and 0.8668 and 1.097
Cells dead or dying (annexin-V) ([2]; 1 μM, 72 h): ~ 80%
Treatment-induced cell death (annexin-V) ([2]; 1 μM, 72 h, vs DMSO): increased cell death
total apoptosis, flow cytometry ([2]; SI_Fig 4c, DMSO 9.7, 8.6, 9.8): 30.6 and 31.3 and 31.4
total apoptosis, flow cytometry ([2]; SI_Fig 5c, DMSO 8, 7.6, 6.1): 81.1 and 51.1 and 84.7
Late apoptosis, flow cytometry ([2]; SI_Fig 4b, DMSO 3, 2.7, 3): 8.5 and 9.4 and 9.1
Early apoptosis, flow cytometry ([2]; SI_Fig 4b, DMSO 6.8, 5.8, 6.8): 22.2 and 21.9 and 22.3
Late apoptosis, flow cytometry ([2]; SI_Fig 5b, DMSO 1.5, 1.2, 1.2): 37.1 and 24.3 and 39.1
Early apoptosis, flow cytometry ([2]; SI_Fig 5b, DMSO 6.5, 6.4, 4.9): 44 and 26.8 and 45.7
Effect on viability of CRBN−/− cells (annexin-V) ([3]; 1 μM): no effect on the viability
Late apoptosis, flow cytometry ([3]; SI_Fig 4b, DMSO 3.1, 3.5, 3.3): 2.9 and 2.8 and 2.6
Early apoptosis, flow cytometry ([3]; SI_Fig 4b, DMSO 7.1, 7.5, 7.8): 8.1 and 7.5 and 5.1
Late apoptosis, flow cytometry ([3]; SI_Fig 5b, DMSO 1.3, 1.9, 2): 2.1 and 1.7 and 2.2
Early apoptosis, flow cytometry ([3]; SI_Fig 5b, DMSO 4.6, 5.9, 7.6): 6.7 and 6.2 and 6.6
total apoptosis, flow cytometry ([3]; SI_Fig 4c, DMSO 10.2, 11.1, 11.2): 10.9 and 10.4 and 7.6
total apoptosis, flow cytometry ([3]; SI_Fig 5c, DMSO 5.8, 7.8, 9.6): 8.8 and 7.9 and 8.7
CK1a Degradation Rate Constant ([4]; 0.111 uM): 2.872 λ/hour
CK1a Percent Maximum Degradation ([4]; 0.111 uM): 90.93% and 90.25% and 91.10%
CK1a Degradation Rate Constant ([4]; 0.333 uM): 3.25 λ/hour
CK1a Percent Maximum Degradation ([4]; 0.333 uM): 91.59% and 92.14% and 92.11%
CK1a Degradation Rate Constant ([4]; 1 uM): 3.334 λ/hour
CK1a Percent Maximum Degradation ([4]; 1 uM): 92.68% and 92.87% and 92.05%
CK1a Degradation Rate Constant ([4]; 3 uM): 3.448 λ/hour
CK1a Percent Maximum Degradation ([4]; 3 uM): 93.01% and 93.23% and 92.96%
CK1a Degradation Rate Constant ([4]; 10 uM): 3.507 λ/hour
CK1a Percent Maximum Degradation ([4]; 10 uM, replicates): 95.39% and 95.59% and 95.66%
Dmax at 0.111 µM ([4]; CK1, 0.111 uM, read-out: CK1a Percent Maximum Degradation): 90.6%
Dmax at 0.333 µM ([4]; CK1, 0.333 uM, read-out: CK1a Percent Maximum Degradation): 91.9%
Dmax at 1 µM ([4]; CK1, 1 uM, read-out: CK1a Percent Maximum Degradation): 92.6%
Dmax at 3 µM ([4]; CK1, 3 uM, read-out: CK1a Percent Maximum Degradation): 92.7%
Dmax at 10 µM ([4]; CK1, 10 uM, replicates, read-out: CK1a Percent Maximum Degradation): 95.4%
CK1α degradation depth (HiBiT) ([4]; HEK293): near-complete degradation
CK1α degradation rate relative to SJ0040 ([4]; HEK293): ~2 fold
CK1α degradation rate relative to lenalidomide ([4]; HEK293): ~10 fold
DC50 ([4]; HEK293, at 4 h): 6 nM
CK1α degradation within the first 30 min ([4]; at most concentrations): > 50%
